We go through nine molecules from PMC10585773, “Green synthesis of highly functionalized heterocyclic bearing pyrazole moiety for cancer-targeted chemo/radioisotope therapy” (BMC Chemistry, 2023).

One test concerns HepG2. The test is described as follows: MTT assay, in-vitro cytotoxicity against HepG2. The test is classed as cell-based. As to conditions: Homo sapiens, HepG2 hepatocellular carcinoma cells, scale: 1–10 very strong, 11–20 strong, 21–50 moderate, 51–100 weak, above 100 non-cytotoxic. The source says:
(§1) Hepatocellular carcinoma (HepG2), and colorectal carcinoma (HCT-116). The cell lines were obtained from ATCC via Holding company for biological products and vaccines (VACSERA), Cairo, Egypt.
(§2) The reagents RPMI-1640 medium, MTT and DMSO (sigma co., St. Louis, USA), Fetal Bovine serum (GIBCO, UK). 5-Fluorouracil was used as a standard anticancer drug for comparison.
(§3) HepG2 and (HCT-116 were used to determine the inhibitory effects of compounds on cell growth using the MTT assay. The relative cell viability in percentage was calculated as (A570 of treated samples/A570 of untreated sample) X 100.

The test system of another test is HCT-116. The test is described as follows: MTT assay, in-vitro cytotoxicity against HCT-116. In kind it is cell-based. The following applies: Homo sapiens, HCT-116 colorectal carcinoma cells, scale: 1–10 very strong, 11–20 strong, 21–50 moderate, 51–100 weak, above 100 non-cytotoxic.
From the text: as §1, §2, §3
(Tetrazolium assays rely on reduction of a dye to a coloured formazan, in cell work by metabolically active cells.)

The term IC50 denotes the concentration at which inhibition is half-maximal. In the case of `N#Cc1c(N)nc2c(c(-c3ccccc3)nn2-c2ccccc2)c1N` [Compound 2, 4,6-Diamino-1,3-diphenyl-1H-pyrazolo[3,4-b]pyridine-5-carbonitrile], the results for the IC50 in the test on HepG2 and in the test on HCT-116 were 9.2 ± 2.8 µM and 7.7 ± 1.8 µM, respectively.

`NC(=O)c1c(N)nc2c(c(-c3ccccc3)nn2-c2ccccc2)c1N` [Compound 3, 4,6-Diamino-1,3-diphenyl-1H-pyrazolo[3,4-b]pyridine-5-carboxamide]: the IC50 in the test with HepG2 stood at 22.8 ± 2.1 µM; with HCT-116 it was 29.4 ± 2.3 µM.

Regarding `Nc1c(C(=O)O)[nH]c2c1c(-c1ccccc1)nn2-c1ccccc1` [Compound 4, 4-Amino-1,3-diphenyl-1,6-dihydropyrrolo[2,3-c]pyrazole-5-carboxylic acid], the half-inhibitory concentration (IC50) in the test with HepG2 turned out to be 14.5 ± 2.8 µM; with HCT-116, 15.2 ± 2.4 µM.

Turning to `Nc1n[nH]c2c1c(-c1ccccc1)nn2-c1ccccc1` [Compound 5, 4,6-Diphenyl-1,6-dihydropyrazolo[3,4-c]pyrazol-3-amine], the IC50 was determined as 8.8 ± 5.1 µM in the test with HepG2 and 13.8 ± 3.9 µM in the test on HCT-116.

As to `O=c1[nH]cc(F)c(=O)[nH]1` [Compound 5-Fu, 5-Fluorouracil, reference compound], the IC50 in the test on HepG2 was 7.86 ± 0.5 µM; in the test with HCT-116, 5.35 ± 0.3 µM.

On to `Nc1nc(=O)[nH]c2c1c(-c1ccccc1)nn2-c1ccccc1` [Compound 6, 4-Amino-1,3-diphenyl-1,7-dihydro-6H-pyrazolo[3,4-d]pyrimidin-6-one], for which the IC50 in the test on HepG2 was 91.4 ± 4.2 µM; in the test on HCT-116 it was 51 ± 2.7 µM.

With `Nc1nc(=S)[nH]c2c1c(-c1ccccc1)nn2-c1ccccc1` [Compound 7, 4-Amino-1,3-diphenyl-1,7-dihydro-6H-pyrazolo[3,4-d]pyrimidine-6-thione], the figures for the IC50 in the test on HepG2 and in the test with HCT-116 were 10.2 ± 2.1 µM and 13.1 ± 2.3 µM, respectively.

Turning to `CCOc1nc(-c2ccccc2)nc2c1c(-c1ccccc1)nn2-c1ccccc1` [Compound 8, 4-Ethoxy-1,3,6-triphenyl-1H-pyrazolo[3,4-d]pyrimidine], the IC50 is 12.1 ± 5.1 µM in the test on HepG2 and 17.4 ± 3.9 µM in the test with HCT-116.

With `Nc1nc(-c2c(-c3ccccc3)nn(-c3ccccc3)c2N)nc2c1c(-c1ccccc1)nn2-c1ccccc1` [Compound 9, 6-(5-Amino-1,3-diphenyl-1H-pyrazol-4-yl)-1,3-diphenyl-1H-pyrazolo[3,4-d]pyrimidin-4-amine], the IC50 in the test on HepG2 turned out to be 55.7 ± 2.7 µM; with HCT-116, 33.6 ± 2.1 µM.
